These results are taken from US9963444B2, “N-acylethanolamine hydrolyzing acid amidase (NAAA) inhibitors and their use thereof” (Northeastern University, priority 2014, dated 2018).

One assay has as its system TNBS-induced colitis. Nature of the assay: TNBS-induced colitis in mice. Format: in vivo. As to the method:
NAAA inhibitor Example 4 (10 mg/kg bid, ip) *p<0.05 versus the TNBS untreated group.
PEA (10 mg/kg) and NAAA inhibitor Example 4 (AM; 10 mg/kg bid, ip). Mice were sacrificed on day 3 after administration. Effects of PEA and Example 4 on colon weight/length ratio, feces and MPO activity, mRNA expression of F4-80, CD11b, IL-12, TNF-α, MCP-1 and IL-1β expression measured by ELISA. #p<0.05; ##p<0.005; ###p<0.001 versus control mice; *p<0.05 versus the TNBS-untreated group.
TNBS-induced colitis is accompanied by increased pro-inflammatory cytokines expression in the liver and brain. Effects of PEA administration and NAAA inhibition with Example 4 (10 mg/kg b.i.d) on pro-inflammatory cytokines expression in (A) the liver and (B) brain. Results are expressed as mean±SEM with n=10mice/group. *p<0.05; **p<0.005; ***p<0.001 versus the TNBS untreated group.
Applicants also studied the compound of Example 4 in animal models of trinitrobenzene sulfonic acid (TNBS)- and dextran sodium sulfate (DSS)-induced colitis. This study aimed to investigate the effects of inhibiting NAAA responsible for PEA hydrolysis in colon inflammation in order to propose a potential therapeutic target for inflammatory bowel diseases. PEA is a known anti-inflammatory compound with analgesic, neuroprotective and anti-allergic properties, and was recently shown to exert PPARα dependent beneficial effects on colon inflammation [Laboratory Investigation; a Journal of Technical Methods and Pathology. 2004; 84: 1643-54].

Assay [1] addresses T1, hNAAA (Homo sapiens (Human), UniProt Q02083). Nature of the assay: Fluorescence-based NAAA inhibition assay with fluorogenic substrate PAMCA.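 Further: compound preincubated 15 min at room temperature with hNAAA, then PAMCA added at 5 µM, reacted 120 min at 37 °C, AMC release read by fluorescence (ex 360, em 460 nm).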
Procedure: For three point concentration inhibition assays with hNAAA the following procedure is used. […] These samples are allowed to incubate for 15 min at room temperature and then 10 μL of a PAMCA stock solution in DMSO (final PAMCA concentration [5 μM]) was added. After 5 minutes of agitation on a shaking plate, the reaction is allowed to proceed at 37° C. for 120 minutes, with fluorescence readings taken every 10 minutes at a wavelength of 460 nm (using an excitation wavelength of 360 nm) on a Synergy HT Plate Reader using Gen5 software from Bio-Tek. The enzyme activity is calculated by converting the relative fluorescence units to AMC formed, using a standard curve of AMC. […] The assay procedure used is the same as the three point assay. […] After 5 minutes of agitation on a shaking plate, the reaction is allowed to proceed at 37° C. for 120 minutes Inhibition constants are calculated using pro Fit software (Quantum Soft, Uetikon am See, Switzerland) and a Levenberg-Marquardt algorithm.
For three point concentration inhibition assays with hNAAA the following procedure is used. […] These samples are allowed to incubate for 15 min at room temperature and then 10 μL of a PAMCA stock solution in DMSO (final PAMCA concentration [5 μM]) was added. After 5 minutes of agitation on a shaking plate, the reaction is allowed to proceed at 37° C. for 120 minutes, with fluorescence readings taken every 10 minutes at a wavelength of 460 nm (using an excitation wavelength of 360 nm) on a Synergy HT Plate Reader using Gen5 software from Bio-Tek. The enzyme activity is calculated by converting the relative fluorescence units to AMC formed, using a standard curve of AMC.
The assay procedure used is the same as the three point assay. […] After 5 minutes of agitation on a shaking plate, the reaction is allowed to proceed at 37° C. for 120 minutes. Inhibition constants are calculated using pro Fit software (Quantum Soft, Uetikon am See, Switzerland) and a Levenberg-Marquardt algorithm.
Assay [2] concerns the target T1, hNAAA. Nature of the assay: Inhibition kinetics of hNAAA (pre-incubation, Lineweaver-Burk plot, rapid dilution). The assay is classed as biochemical. As to the method:
The curves represent 15 minutes (filled circles, solid line) and 3 hours (open circles, dotted line) preincubation of hNAAA with NAAA inhibitor Example 4.
Example 4 inhibition kinetics of hNAAA (reversible or irreversible) was investigated using two methods: (1) Short (15 min) and long (180 min) pre-incubation of the inhibitor and enzyme prior to addition of N-(4-methyl coumarin) palmitamide (PAMCA) substrate (FIG. 1). Example's 4 inhibition concentration (IC50) was unaffected by longer pre-incubation of hNAAA with 4.

The mark [3] stands for this setting: 10 mg/kg bid, ip, sacrificed day 3.

T1 sequence (Q02083 29-125): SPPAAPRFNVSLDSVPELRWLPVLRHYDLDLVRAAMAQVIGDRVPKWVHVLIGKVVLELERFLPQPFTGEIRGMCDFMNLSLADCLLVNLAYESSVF
T1 sequence (Q02083 126-359): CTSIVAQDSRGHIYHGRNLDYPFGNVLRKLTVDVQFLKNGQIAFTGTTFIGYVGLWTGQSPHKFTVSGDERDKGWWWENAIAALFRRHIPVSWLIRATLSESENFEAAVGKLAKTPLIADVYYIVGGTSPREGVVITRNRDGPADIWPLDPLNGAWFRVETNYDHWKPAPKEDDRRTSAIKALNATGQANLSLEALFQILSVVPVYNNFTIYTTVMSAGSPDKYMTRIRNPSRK

In the case of `S=C=NCCCCCCCCCCc1ccccc1` [Example 4, (10-Isothiocyanatodecyl)benzene], the “Pro-inflammatory cytokines and chemokines expression in the liver and brain” value with TNBS-induced colitis (10 mg/kg b.i.d, liver and brain) is on record as “decreased”. Further, the “PEA levels in the colon” value in the assay with TNBS-induced colitis (10 mg/kg bid, ip, TNBS-induced colitis) is given as “increased”. Besides, in the assay with TNBS-induced colitis (10 mg/kg bid, ip, colon), the “Expression of pro-inflammatory cytokines and chemokines in colon” value was “reduced”; the “Leukocyte infiltration and activation (MPO activity, F4-80 and CD11b expression)” value was “reduced”. Also, in the assay on TNBS-induced colitis (setting [3]), the “All measured parameters of colon inflammation” value is on record as “decreased”, the Colon weight/length ratio entry is “reduced” and the “Weight of the cecal content” value is “reduced”. In addition, the concentration for half-maximal inhibition (IC50) at hNAAA [1] fell in the range of 10 to 100 nM. Further, on hNAAA [2] (15 min vs 180 min pre-incubation of inhibitor and enzyme before PAMCA), the “Effect of longer pre-incubation on IC50” value is listed as “unaffected”. The “Type of inhibition (Lineweaver-Burk plot)” value on hNAAA [2] (PAMCA at different concentrations, inhibitor 50 nM) is listed as “competitive type inhibitor”. Besides, the “Mode of inhibition (reversibility)” value at hNAAA [2] (conclusion from pre-incubation and rapid dilution) was “reversible and non-covalent inhibitor”. For the same compound, at hNAAA [2] (dilution to inhibitor concentration below IC50), the “Recovery of enzyme activity in rapid dilution experiment” value is reported as “fully recovered”.
